# Reference: PubChem BioAssay (NCI)
#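 Results reflect a 48-hour exposure of cells in 96-well plates to compound at five concentrations. At the TGI there is no net growth.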
# How the values were obtained:
# Test in all cases: growth of human tumour cells (NCI), 48 h
# [1] = test system: SK-OV-3 ovarian
# [2] = test system: MCF7 breast
# [3] = test system: MALME-3M melanoma
# [4] = test system: RPMI-8226 leukemia
# [5] = test system: SK-MEL-28 melanoma
# [6] = test system: NCI/ADR-RES ovarian
# [7] = test system: RXF 393 renal
# [8] = test system: A498 renal
# [9] = test system: SW-620 colon
# [10] = test system: 786-0 renal
# [11] = test system: PC-3 prostate
# [12] = test system: MDA-N
# [13] = test system: T-47D breast
# [14] = test system: NCI-H522 lung
# [15] = test system: HCC-2998 colon
# [16] = test system: LOX IMVI melanoma
# [17] = test system: SR leukemia
# [18] = test system: SF-539 CNS
# [19] = test system: SNB-75 CNS
# [20] = test system: HT29 colon
# [21] = test system: SNB-19 CNS
# [22] = test system: OVCAR-3 ovarian
# [23] = test system: CAKI-1 renal
# [24] = test system: MOLT-4 leukemia
# [25] = test system: UO-31 renal
# [26] = test system: SF-268 CNS
# [27] = test system: OVCAR-8 ovarian
# [28] = test system: UACC-62 melanoma
# [29] = test system: COLO 205 colon
# [30] = test system: DU-145 prostate
# [31] = test system: IGROV1 ovarian
# [32] = test system: MDA-MB-435
# [33] = test system: ACHN renal
# [34] = test system: M14 melanoma
# [35] = test system: HOP-62 NSCLC
# [36] = test system: HL-60(TB) leukemia
# [37] = test system: KM12 colon
# [38] = test system: OVCAR-5 ovarian
# [39] = test system: HCT-15 colon
# [40] = test system: K-562 leukemia
# [41] = test system: NCI-H23 lung
# [42] = test system: NCI-H226 lung
# [43] = test system: NCI-H460 lung
# [44] = test system: SN12C renal
# [45] = test system: OVCAR-4 ovarian
# [46] = test system: A549 NSCLC
# [47] = test system: SK-MEL-5 melanoma
# [48] = test system: SF-295 CNS
# [49] = test system: EKVX NSCLC
# [50] = test system: HCT-116 colon
# [51] = test system: HOP-92 NSCLC
# [52] = test system: UACC-257 melanoma
# [53] = test system: SK-MEL-2 melanoma
# [54] = test system: BT-549 breast
# [55] = test system: HS 578T breast
# [56] = test system: CCRF-CEM leukemia
structure (smiles),measurement,setting,value
COc1ccc(C)cc1Nc1nnc(-c2ccccc2N)s1,TGI,[1],> 100 µM
same,TGI,[2],> 100 µM
same,TGI,[3],> 100 µM
same,TGI,[4],53.4 µM
same,TGI,[5],> 100 µM
same,TGI,[6],> 100 µM
same,TGI,[7],> 100 µM
same,TGI,[8],> 100 µM
same,TGI,[9],> 100 µM
same,TGI,[10],> 100 µM
same,TGI,[11],> 100 µM
same,TGI,[12],> 100 µM
same,TGI,[13],> 100 µM
same,TGI,[14],58.7 µM
same,TGI,[15],> 100 µM
same,TGI,[16],> 100 µM
same,TGI,[17],46.7 µM
same,TGI,[18],> 100 µM
same,TGI,[19],> 100 µM
same,TGI,[20],> 100 µM
same,TGI,[21],> 100 µM
same,TGI,[22],> 100 µM
same,TGI,[23],> 100 µM
same,TGI,[24],15 µM
same,TGI,[25],> 100 µM
same,TGI,[26],> 100 µM
same,TGI,[27],> 100 µM
same,TGI,[28],> 100 µM
same,TGI,[29],> 100 µM
same,TGI,[30],> 100 µM
same,TGI,[31],> 100 µM
same,TGI,[32],> 100 µM
same,TGI,[33],> 100 µM
same,TGI,[34],> 100 µM
same,TGI,[35],> 100 µM
same,TGI,[36],73 µM
same,TGI,[37],> 100 µM
same,TGI,[38],> 100 µM
same,TGI,[39],> 100 µM
same,TGI,[40],> 100 µM
same,TGI,[41],> 100 µM
same,TGI,[42],> 100 µM
same,TGI,[43],> 100 µM
same,TGI,[44],> 100 µM
same,TGI,[45],> 100 µM
same,TGI,[46],> 100 µM
same,TGI,[47],29.4 µM
same,TGI,[48],> 100 µM
same,TGI,[49],90.5 µM
same,TGI,[50],> 100 µM
same,TGI,[51],> 100 µM
same,TGI,[52],> 100 µM
same,TGI,[53],52.3 µM
same,TGI,[54],> 100 µM
same,TGI,[55],> 100 µM
same,TGI,[56],> 100 µM
COc1ccc(-c2cc(-c3cc4cc(Br)ccc4nc3Cl)c(C#N)c(N)n2)cc1,TGI,[1],> 12.5 µM
same,TGI,[2],> 12.5 µM
same,TGI,[3],> 12.5 µM
same,TGI,[4],> 12.5 µM
same,TGI,[5],> 12.5 µM
same,TGI,[6],> 12.5 µM
same,TGI,[7],> 12.5 µM
same,TGI,[9],> 12.5 µM
same,TGI,[10],> 12.5 µM
same,TGI,[11],> 12.5 µM
same,TGI,[12],> 12.5 µM
same,TGI,[13],> 12.5 µM
same,TGI,[14],> 12.5 µM
same,TGI,[16],> 12.5 µM
same,TGI,[17],> 12.5 µM
same,TGI,[18],> 12.5 µM
same,TGI,[19],> 12.5 µM
same,TGI,[20],> 12.5 µM
same,TGI,[21],> 12.5 µM
same,TGI,[22],> 12.5 µM
same,TGI,[23],> 12.5 µM
same,TGI,[24],> 12.5 µM
same,TGI,[25],> 12.5 µM
same,TGI,[26],> 12.5 µM
same,TGI,[27],> 12.5 µM
same,TGI,[29],> 12.5 µM
same,TGI,[30],> 12.5 µM
same,TGI,[31],> 12.5 µM
same,TGI,[32],> 12.5 µM
same,TGI,[34],> 12.5 µM
same,TGI,[35],> 12.5 µM
same,TGI,[36],> 12.5 µM
same,TGI,[37],> 12.5 µM
same,TGI,[38],> 12.5 µM
same,TGI,[39],> 12.5 µM
same,TGI,[40],> 12.5 µM
same,TGI,[41],> 12.5 µM
same,TGI,[42],> 12.5 µM
same,TGI,[44],> 12.5 µM
same,TGI,[45],> 12.5 µM
same,TGI,[46],> 12.5 µM
same,TGI,[47],> 12.5 µM
same,TGI,[48],> 12.5 µM
same,TGI,[49],> 12.5 µM
same,TGI,[50],> 12.5 µM
same,TGI,[51],> 12.5 µM
same,TGI,[53],> 12.5 µM
same,TGI,[54],> 12.5 µM
same,TGI,[55],> 12.5 µM
same,TGI,[56],> 12.5 µM
